Reference: US20250144067A1, “PERSONALIZED STARVATION THERAPY FOR CANCER” (Faeth Therapeutics, Inc., priority 2021, published 2025)
Where a name gives a salt, the structure may show the parent alone. Numbered stars: 1 amine (or outer) side, 2 acyl side, 3 side chain; on linkers, the order of the positions; unused ones are H or OH. Bridge positions count the residues as written; N and C are the ends. Square brackets hold non-standard residues; d marks the D form. Peptide text beside a SMILES is read from it. * marks the point of attachment. hTyr(3S-OH,4S-OH,3'-OSO3H) = N[C@H](C(=O)O)[C@H](O)[C@@H](O)c1ccc(O)c(OS(=O)(=O)O)c1; Orn(4R-OH,5R-OH) = O=C([C@H](C[C@@H](O)[C@@H](O)N[*:3])N[*:1])[*:2]; Pro(3S-OH,4S-Me) = C[C@H]1CN[C@H](C(=O)O)[C@H]1O; X1 = CCCCCOc1ccc(-c2cc(-c3ccc(C(=O)*)cc3)no2)cc1; Gln(3R-OH) = NC(=O)C[C@@H](O)[C@H](N)C(=O)O; Hyp = O=C(O)[C@@H]1C[C@@H](O)CN1

How the values were obtained:
[1] = test system: NCI-H292 lung cancer cells; test: FDA drug screening, complete media vs cholesterol-free media without statin (TABLE 1); format: cell-based, human
[2] = test system: NCI-H292 lung cancer cells; test: FDA drug screening, complete media vs cholesterol-free media with simvastatin (TABLE 2); format: cell-based, human; settings: for Cholesterol-free media + simvastatin (0.04 μM) / Complete Media: NCI-H292 cells
[3] = Complete minus Cholesterol-free; >0 enhanced anti-cancer activity, about 0 neutral, <0 antagonist
[4] = NCI-H292 cells, cholesterol-free media without statin
[5] = NCI-H292 cells, cholesterol-free media without statin, FDA drug library screen
[6] = NCI-H292 cells, complete media, FDA drug library screen
[7] = cholesterol-free media with simvastatin 0.04 μM, FDA drug library screen (TABLE 2)
[8] = complete media, FDA drug library screen (TABLE 2)
[9] = complete media minus cholesterol-free media + simvastatin (0.04 μM), >0 enhanced anti-cancer activity, about 0 neutral, <0 antagonist
[10] = complete vs cholesterol-free media; greater than 0 enhanced anti-cancer activity, about 0 neutral, below 0 antagonists
[11] = FDA library drug in cholesterol-free media with simvastatin 0.04 μM
[12] = FDA library drug in complete media
[13] = complete media vs cholesterol-free media + simvastatin (0.04 μM), >0 enhanced anti-cancer activity, about 0 neutral, <0 antagonist
[14] = Complete minus Cholesterol-free; […]
[15] = drug in cholesterol-free media with simvastatin 0.04 μM
[16] = complete media vs cholesterol-free media + simvastatin (0.04 μM), […]

Compound | Difference [1, 3] | Cholesterol-free [1, 4] | Complete ([1]; NCI-H292 cells, complete media) | Cholesterol-free [1, 5] | Complete [1, 6] | Cholesterol-free media + simvastatin (0.04 μM) [2, 11] | Complete Media [2, 12] | Difference [2, 13] | also measured
COc1cc2nc(N(C)CCCNC(=O)C3CCCO3)nc(N)c2cc1OC (stereo not drawn) [Alfuzosin (hydrochloride)] | −0.22 | 1.203 | 0.9827 |  |  |  |  |  | Cholesterol-free media + simvastatin (0.04 μM) ([2]; FDA drug library screen, cholesterol-free media with simvastatin 0.04 μM): 0.7758; Complete Media ([2]; FDA drug library screen, complete media): 1.007; Difference ([2]; complete media minus cholesterol-free media + simvastatin, >0 enhanced anti-cancer activity, about 0 neutral, <0 antagonist): 0.23
O[C@H]1[C@H](O)[C@@H](O)[C@H](O)[C@@H](O)[C@H]1O [i-Inositol] | −0.01 |  |  | 1.553 | 1.54 |  |  |  | Cholesterol-free media + simvastatin (0.04 μM) [2, 7]: 0.9949; Complete Media [2, 8]: 0.9333; Difference [2, 9]: −0.06
CO[C@H]1/C=C/O[C@@]2(C)Oc3c(C)c([O-])c4c(O)c(cc(O)c4c3C2=O)NC(=O)/C(C)=C\C=C\[C@H](C)[C@H](O)[C@@H](C)[C@@H](O)[C@@H](C)[C@H](OC(C)=O)[C@@H]1C.[Na+] [Rifamycin (sodium)] |  | 2.314 | 1.878 |  |  | 1.045 | 0.7505 | −0.29 | Difference [1, 10]: −0.44
Vincristine (sulfate) |  |  |  | 0.04497 | 0.06722 |  |  |  | Difference [1, 14]: 0.02; Cholesterol-free media + simvastatin (0.04 μM) [2, 7]: 0.1488; Complete Media [2, 8]: 0.1119; Difference ([2]; complete media minus cholesterol-free media + simvastatin (0.04 μM), […]): −0.04
COc1ccc(CN=c2[nH]c(N3CCC[C@H]3CO)ncc2C(=O)NCc2ncccn2)cc1Cl [Avanafil] | −0.27 | 0.9577 | 0.6848 |  |  |  |  | −0.21 | Cholesterol-free media + simvastatin (0.04 μM) [2, 15]: 1.12; Complete Media ([2]; drug in complete media): 0.9091
CCC(=O)Oc1ccc2c(c1)CC[C@@H]1[C@@H]2CC[C@]2(C)[C@@H](OC(=O)CC)CC[C@@H]12 [Estradiol dipropionate] |  |  |  |  |  | 1.891 | 1.522 |  | Difference [1, 14]: −0.07; Cholesterol-free ([1]; NCI-H292 cells, FDA drug library screen, cholesterol-free media without statin): 0.9963; Complete ([1]; NCI-H292 cells, FDA drug library screen, complete media): 0.9247; Difference [2, 16]: −0.37
CCN(CC)Cc1cc(Nc2ccnc3cc(Cl)ccc23)ccc1O [Amodiaquine (dihydrochloride)] |  | 1.475 | 1.037 |  |  | 1.766 | 1.059 | −0.71 | Difference [1, 10]: −0.44
CC(C)OC(=O)C(C(=O)OC(C)C)=C1SC=CS1 [Malotilate] | −0.31 | 1.163 | 0.8568 |  |  | 1.172 | 0.8557 | −0.32 | 
CN[C@H]1C(=O)N[C@@H]2Cc3ccc(cc3)Oc3cc4cc(c3O[C@@H]3O[C@H](C(=O)O)[C@@H](O)[C@H](O)[C@H]3NC(=O)CCCCCCCCC(C)C)Oc3ccc(cc3Cl)[C@@H](O)[C@@H]3NC(=O)[C@H](NC(=O)[C@@H]4NC(=O)[C@@H](NC2=O)c2cc(cc(O)c2Cl)Oc2cc1ccc2O)c1ccc(O)c(c1)-c1c(O[C@H]2O[C@H](CO)[C@@H](O)[C@H](O)[C@@H]2O)cc(O)cc1[C@@H](C(=O)NCCCN(C)C)NC3=O [Dalbavancin (hydrochloride)] |  | 1.639 | 1.366 |  |  |  |  |  | Difference [1, 14]: −0.27; Cholesterol-free media + simvastatin (0.04 μM) [2, 15]: 1.058; Complete Media ([2]; drug in complete media): 0.8779; Difference [2, 16]: −0.18
N[C@H](Cc1ccc(O)cc1)C(=O)O [D-Tyrosine] | −0.01 |  |  | 1.081 | 1.068 | 1.43 | 0.9975 | −0.43 | 
CCCCCOc1ccc(-c2cc(-c3ccc(C(=O)N[C@H]4C[C@@H](O)[C@@H](O)NC(=O)[C@@H]5[C@@H](O)[C@@H](C)CN5C(=O)[C@H]([C@H](O)CC(N)=O)NC(=O)[C@H]([C@H](O)[C@@H](O)c5ccc(O)c(OS(=O)(=O)O)c5)NC(=O)[C@@H]5C[C@@H](O)CN5C(=O)[C@H]([C@@H](C)O)NC4=O)cc3)no2)cc1 [Micafungin (sodium)] (X1-[Orn(4R-OH,5R-OH)]T[Hyp][hTyr(3S-OH,4S-OH,3'-OSO3H)][Gln(3R-OH)][Pro(3S-OH,4S-Me)]; lactam 1-C) |  |  |  | 1.036 | 1.188 | 2.204 | 1.774 |  | Difference ([1]; complete vs cholesterol-free media; […]): 0.15; Difference [2, 16]: −0.43
CC(=O)O[C@H]1C(=O)[C@@]2(C)[C@H]([C@H](OC(=O)c3ccccc3)[C@]3(O)C[C@H](OC(=O)[C@H](O)[C@@H](NC(=O)c4ccccc4)c4ccccc4)C(C)=C1C3(C)C)[C@]1(OC(C)=O)CO[C@@H]1C[C@@H]2O [Paclitaxel] | −0.01 |  |  | 0.0662 | 0.05705 |  |  |  | Cholesterol-free media + simvastatin (0.04 μM) [2, 7]: 0.2107; Complete Media [2, 8]: 0.1648; Difference [2, 9]: −0.05
